Measurements published in the kinase profiling compilation of Christmann-Franck et al. (2016).

Experiments:
Experiment in all cases: KINOMEscan competition binding
Conditions in all cases: compound 10.0 µM
CLK1 (human) = CLK1 (human) (UniProt P49759)
MYLK4 (human) = MYLK4 (human) (UniProt Q86YV6)
DCLK3 (human) = DCLK3 (human) (UniProt Q9C098)
CSNK1D (human) = CSNK1D (human) (UniProt P48730)
DAPK1 (human) = DAPK1 (human) (UniProt P53355)
PLK4 (human) = PLK4 (human) (UniProt O00444)
MAP2K3 (human) = MAP2K3 (human) (UniProt P46734)
TGFBR2 (human) = TGFBR2 (human) (UniProt P37173)
TGFBR2 (human), sequence (P37173 whole entry, looked up): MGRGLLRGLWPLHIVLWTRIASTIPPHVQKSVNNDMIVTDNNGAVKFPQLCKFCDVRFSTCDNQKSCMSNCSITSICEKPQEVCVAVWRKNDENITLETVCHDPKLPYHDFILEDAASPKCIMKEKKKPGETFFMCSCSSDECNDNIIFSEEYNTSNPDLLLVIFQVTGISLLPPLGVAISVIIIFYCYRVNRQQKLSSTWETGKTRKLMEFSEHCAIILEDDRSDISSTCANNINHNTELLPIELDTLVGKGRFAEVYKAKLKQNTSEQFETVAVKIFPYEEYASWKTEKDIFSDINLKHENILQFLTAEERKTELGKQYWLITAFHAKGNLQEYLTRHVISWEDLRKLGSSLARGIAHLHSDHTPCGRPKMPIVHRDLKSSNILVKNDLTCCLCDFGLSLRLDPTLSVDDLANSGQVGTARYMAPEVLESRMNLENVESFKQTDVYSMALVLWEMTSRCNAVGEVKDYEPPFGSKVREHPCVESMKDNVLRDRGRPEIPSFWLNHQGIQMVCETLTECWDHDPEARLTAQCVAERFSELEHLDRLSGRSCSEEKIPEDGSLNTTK

MKNK2 (human) = MKNK2 (human) (UniProt Q9HBH9)
GSK3A (human) = GSK3A (human) (UniProt P49840)
RPS6KA6 KD2 (human) = RPS6KA6 KD2 (human) (UniProt Q9UK32)
TNK1 (human) = TNK1 (human) (UniProt Q13470)
[1] = molecular target: JAK1 JH2 pseudokinase (human) (UniProt P23458)
MYLK3 (human) = MYLK3 (human) (UniProt Q32MK0)
MYLK3 (human), sequence (Q32MK0 whole entry, looked up): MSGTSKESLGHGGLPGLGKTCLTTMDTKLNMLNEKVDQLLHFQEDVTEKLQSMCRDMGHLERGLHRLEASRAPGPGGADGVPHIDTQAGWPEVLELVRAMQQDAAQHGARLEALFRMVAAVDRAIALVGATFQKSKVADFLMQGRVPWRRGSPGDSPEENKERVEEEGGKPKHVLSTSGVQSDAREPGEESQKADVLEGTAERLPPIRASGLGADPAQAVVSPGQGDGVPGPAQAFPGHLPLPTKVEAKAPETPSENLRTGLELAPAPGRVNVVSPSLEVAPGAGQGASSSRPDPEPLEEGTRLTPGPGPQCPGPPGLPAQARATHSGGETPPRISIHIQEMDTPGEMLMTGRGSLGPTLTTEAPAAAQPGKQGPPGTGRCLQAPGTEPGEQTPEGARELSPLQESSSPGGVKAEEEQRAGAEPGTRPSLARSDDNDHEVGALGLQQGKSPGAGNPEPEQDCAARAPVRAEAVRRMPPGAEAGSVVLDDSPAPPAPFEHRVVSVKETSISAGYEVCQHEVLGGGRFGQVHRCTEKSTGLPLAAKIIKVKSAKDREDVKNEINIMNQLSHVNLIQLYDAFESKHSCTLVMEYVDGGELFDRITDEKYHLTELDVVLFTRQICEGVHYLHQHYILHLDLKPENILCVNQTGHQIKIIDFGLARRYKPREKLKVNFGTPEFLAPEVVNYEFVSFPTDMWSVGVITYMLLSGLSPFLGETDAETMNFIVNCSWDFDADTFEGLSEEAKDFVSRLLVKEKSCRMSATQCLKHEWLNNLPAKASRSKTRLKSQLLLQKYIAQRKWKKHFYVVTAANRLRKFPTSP

BRSK2 (human) = BRSK2 (human) (UniProt Q8IWQ3)
BRSK2 (human), sequence (Q8IWQ3 whole entry, looked up): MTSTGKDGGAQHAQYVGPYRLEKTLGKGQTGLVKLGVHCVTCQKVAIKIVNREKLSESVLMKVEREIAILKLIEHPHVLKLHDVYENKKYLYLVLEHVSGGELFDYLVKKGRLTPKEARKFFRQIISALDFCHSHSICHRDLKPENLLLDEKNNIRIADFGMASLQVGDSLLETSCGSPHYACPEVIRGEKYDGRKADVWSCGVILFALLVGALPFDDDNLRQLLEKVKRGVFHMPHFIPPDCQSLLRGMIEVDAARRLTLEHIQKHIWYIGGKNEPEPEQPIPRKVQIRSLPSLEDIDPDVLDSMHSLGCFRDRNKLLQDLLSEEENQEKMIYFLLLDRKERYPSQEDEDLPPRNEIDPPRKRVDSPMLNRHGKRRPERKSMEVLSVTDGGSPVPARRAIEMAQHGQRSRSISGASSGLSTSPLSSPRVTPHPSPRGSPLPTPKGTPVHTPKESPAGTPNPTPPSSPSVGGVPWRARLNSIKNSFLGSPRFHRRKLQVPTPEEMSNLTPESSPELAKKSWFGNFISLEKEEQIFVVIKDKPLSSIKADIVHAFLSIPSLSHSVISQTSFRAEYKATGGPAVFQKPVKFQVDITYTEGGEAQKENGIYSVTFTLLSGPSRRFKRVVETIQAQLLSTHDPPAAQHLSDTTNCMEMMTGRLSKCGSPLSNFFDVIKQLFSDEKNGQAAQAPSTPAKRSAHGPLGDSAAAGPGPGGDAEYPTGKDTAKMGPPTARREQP

PIP5K1A (human) = PIP5K1A (human) (UniProt Q99755)
PIM1 (human) = PIM1 (human) (UniProt P11309)
[2] = system: FLT3 (human), P36888 [D835Y]
CLK4 (human) = CLK4 (human) (UniProt Q9HAZ1)
MAPK8 (human) = MAPK8 (human) (UniProt P45983)
DMPK (human) = DMPK (human) (UniProt Q09013)
CLK3 (human) = CLK3 (human) (UniProt P49761)
RIPK4 (human) = RIPK4 (human) (UniProt P57078)
RIPK4 (human), sequence (P57078 whole entry, looked up): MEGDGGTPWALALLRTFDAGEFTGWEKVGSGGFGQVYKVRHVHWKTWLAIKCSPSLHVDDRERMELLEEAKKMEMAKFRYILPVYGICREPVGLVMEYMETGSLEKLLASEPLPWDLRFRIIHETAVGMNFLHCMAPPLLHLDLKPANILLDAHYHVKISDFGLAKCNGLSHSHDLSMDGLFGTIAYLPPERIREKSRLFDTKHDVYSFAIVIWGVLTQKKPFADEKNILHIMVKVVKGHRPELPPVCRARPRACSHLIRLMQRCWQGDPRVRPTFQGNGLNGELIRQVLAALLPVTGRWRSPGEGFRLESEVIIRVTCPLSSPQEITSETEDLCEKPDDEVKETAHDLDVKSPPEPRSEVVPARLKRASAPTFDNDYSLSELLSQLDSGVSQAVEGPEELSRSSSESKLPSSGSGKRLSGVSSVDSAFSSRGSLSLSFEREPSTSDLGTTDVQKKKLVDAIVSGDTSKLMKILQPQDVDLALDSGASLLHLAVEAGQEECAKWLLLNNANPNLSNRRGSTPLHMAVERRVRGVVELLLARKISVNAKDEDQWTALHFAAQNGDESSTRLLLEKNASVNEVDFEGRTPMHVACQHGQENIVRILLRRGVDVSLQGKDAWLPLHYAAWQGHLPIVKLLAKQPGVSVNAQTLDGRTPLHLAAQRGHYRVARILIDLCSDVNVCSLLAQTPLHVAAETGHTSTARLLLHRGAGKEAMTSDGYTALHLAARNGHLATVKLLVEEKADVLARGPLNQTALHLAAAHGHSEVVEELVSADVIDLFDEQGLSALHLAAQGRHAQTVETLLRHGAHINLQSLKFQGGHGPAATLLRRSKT

CIT (human) = CIT (human) (UniProt O14578)
CDK16 (human) = CDK16 (human) (UniProt Q00536)
MKNK1 (human) = MKNK1 (human) (UniProt Q9BUB5)
RPS6KA4 KD2 (human) = RPS6KA4 KD2 (human) (UniProt O75676)
RPS6KA4 KD2 (human), sequence (O75676 whole entry, looked up): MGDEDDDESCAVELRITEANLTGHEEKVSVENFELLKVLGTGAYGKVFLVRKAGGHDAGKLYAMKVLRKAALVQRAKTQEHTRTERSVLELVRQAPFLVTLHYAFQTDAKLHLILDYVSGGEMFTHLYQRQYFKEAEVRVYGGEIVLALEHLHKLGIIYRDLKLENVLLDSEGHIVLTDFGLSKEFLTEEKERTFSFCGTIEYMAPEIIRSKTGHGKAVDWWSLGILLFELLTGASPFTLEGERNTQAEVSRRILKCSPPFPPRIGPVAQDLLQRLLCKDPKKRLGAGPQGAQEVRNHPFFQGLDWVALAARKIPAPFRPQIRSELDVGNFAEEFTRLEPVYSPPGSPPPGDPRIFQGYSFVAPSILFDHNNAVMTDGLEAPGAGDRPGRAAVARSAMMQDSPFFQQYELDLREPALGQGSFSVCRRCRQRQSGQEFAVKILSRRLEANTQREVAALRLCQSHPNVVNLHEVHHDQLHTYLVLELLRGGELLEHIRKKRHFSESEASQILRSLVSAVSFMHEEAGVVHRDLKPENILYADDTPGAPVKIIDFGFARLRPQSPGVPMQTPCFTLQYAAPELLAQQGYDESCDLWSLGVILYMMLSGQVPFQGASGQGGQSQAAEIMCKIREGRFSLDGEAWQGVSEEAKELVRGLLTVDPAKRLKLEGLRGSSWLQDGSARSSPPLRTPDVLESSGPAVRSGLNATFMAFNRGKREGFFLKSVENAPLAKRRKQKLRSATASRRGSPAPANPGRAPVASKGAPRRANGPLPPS

[3] = system: FLT3 (human), P36888 [D835H]
ULK2 (human) = ULK2 (human) (UniProt Q8IYT8)
PDGFRB (human) = PDGFRB (human) (UniProt P09619)
MAP4K2 (human) = MAP4K2 (human) (UniProt Q12851)
[4] = system: KIT (human), P10721 [V559D/T670I]
NEK2 (human) = NEK2 (human) (UniProt P51955)
RIOK3 (human) = RIOK3 (human) (UniProt O14730)
RIOK3 (human), sequence (O14730 whole entry, looked up): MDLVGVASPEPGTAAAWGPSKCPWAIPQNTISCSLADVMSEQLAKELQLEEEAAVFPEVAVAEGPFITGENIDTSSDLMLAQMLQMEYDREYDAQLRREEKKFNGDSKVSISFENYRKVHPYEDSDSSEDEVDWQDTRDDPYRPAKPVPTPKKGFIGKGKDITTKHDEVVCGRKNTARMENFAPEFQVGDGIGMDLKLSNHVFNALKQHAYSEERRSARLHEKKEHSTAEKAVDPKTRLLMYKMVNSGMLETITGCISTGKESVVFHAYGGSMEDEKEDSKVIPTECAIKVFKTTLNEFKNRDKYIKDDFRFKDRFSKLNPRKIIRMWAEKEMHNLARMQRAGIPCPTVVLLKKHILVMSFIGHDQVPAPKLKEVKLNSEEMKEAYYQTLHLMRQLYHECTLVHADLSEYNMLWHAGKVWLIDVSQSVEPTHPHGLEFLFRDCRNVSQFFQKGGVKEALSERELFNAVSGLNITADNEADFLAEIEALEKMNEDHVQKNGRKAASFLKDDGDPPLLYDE

STK11 (human) = STK11 (human) (UniProt Q15831)
STK16 (human) = STK16 (human) (UniProt O75716)
PRKD3 (human) = PRKD3 (human) (UniProt O94806)
PRKD1 (human) = PRKD1 (human) (UniProt Q15139)
FLT3 (human) = FLT3 (human) (UniProt P36888)
[5] = system: FLT3 (human), P36888 [K663Q]

DCLK3 (human), sequence (Q9C098 whole entry, looked up): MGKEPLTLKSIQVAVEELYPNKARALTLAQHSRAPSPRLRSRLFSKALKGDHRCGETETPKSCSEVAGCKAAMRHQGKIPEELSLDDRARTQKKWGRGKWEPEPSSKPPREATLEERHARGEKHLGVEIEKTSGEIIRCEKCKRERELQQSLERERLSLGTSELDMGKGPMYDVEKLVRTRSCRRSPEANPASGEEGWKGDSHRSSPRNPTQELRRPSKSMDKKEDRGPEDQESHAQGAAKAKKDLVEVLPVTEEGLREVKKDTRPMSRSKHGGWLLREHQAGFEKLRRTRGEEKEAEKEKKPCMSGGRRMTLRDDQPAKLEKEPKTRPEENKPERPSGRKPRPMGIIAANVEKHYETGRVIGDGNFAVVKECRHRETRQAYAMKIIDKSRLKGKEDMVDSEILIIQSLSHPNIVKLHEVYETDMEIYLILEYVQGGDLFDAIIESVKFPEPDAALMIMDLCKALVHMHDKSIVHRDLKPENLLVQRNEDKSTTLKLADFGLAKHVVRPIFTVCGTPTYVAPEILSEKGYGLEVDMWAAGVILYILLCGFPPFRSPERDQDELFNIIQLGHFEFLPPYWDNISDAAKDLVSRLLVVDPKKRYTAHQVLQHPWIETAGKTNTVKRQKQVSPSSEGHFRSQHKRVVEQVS

Structure (SMILES) | kinase still bound, per cent of control (CLK1 (human)) [%] | kinase still bound, per cent of control (MYLK4 (human)) [%] | kinase still bound, per cent of control (DCLK3 (human)) [%] | kinase still bound, per cent of control (DAPK1 (human)) [%] | kinase still bound, per cent of control (PLK4 (human)) [%] | kinase still bound, per cent of control (MAP2K3 (human)) [%] | kinase still bound, per cent of control (TGFBR2 (human)) [%] | kinase still bound, per cent of control (MYLK3 (human)) [%] | kinase still bound, per cent of control (BRSK2 (human)) [%] | kinase still bound, per cent of control (PIP5K1A (human)) [%] | kinase still bound, per cent of control (PIM1 (human)) [%] | kinase still bound, per cent of control [2] [%] | kinase still bound, per cent of control (CLK4 (human)) [%] | kinase still bound, per cent of control (CLK3 (human)) [%] | kinase still bound, per cent of control (RIPK4 (human)) [%] | kinase still bound, per cent of control (CIT (human)) [%] | kinase still bound, per cent of control (CDK16 (human)) [%] | kinase still bound, per cent of control (MKNK1 (human)) [%] | kinase still bound, per cent of control (RPS6KA4 KD2 (human)) [%] | kinase still bound, per cent of control (ULK2 (human)) [%] | also measured
N=C1NC(=O)/C(=C/c2ccc(-c3csc4ccccc34)o2)S1 | 20 | 32 | 26 | 15 | 5.2 | 20 | 2.4 | 21 | 18 | 30 | 8.1 | 19 | 25 | – | – | – | – | – | – | – | kinase still bound, per cent of control (CSNK1D (human)): 34%; kinase still bound, per cent of control (MKNK2 (human)): 34%; kinase still bound, per cent of control (GSK3A (human)): 0%; kinase still bound, per cent of control (RPS6KA6 KD2 (human)): 18%; kinase still bound, per cent of control (TNK1 (human)): 31%; kinase still bound, per cent of control [1]: 19%; kinase still bound, per cent of control (MAPK8 (human)): 34%
N=C1NC(=O)/C(=C/c2ccc(-c3ccc(C(N)=O)cc3O)o2)S1 | 0.55 | 6 | 2.7 | 9.7 | 8.8 | – | 9 | 22 | 17 | – | 3 | – | 6.4 | 4.2 | 7.9 | 19 | 0.65 | 13 | 0.75 | – | kinase still bound, per cent of control (DMPK (human)): 14%; kinase still bound, per cent of control (GSK3A (human)): 17%
CS(=O)(=O)Nc1ccc(-c2ncc(/C=C3\SC(=N)NC3=O)s2)cc1 | – | – | 22 | 4 | 11 | – | 12 | 2.6 | 28 | – | 2.8 | 12 | – | – | – | – | – | 13 | 1.2 | 24 | kinase still bound, per cent of control [3]: 23%; kinase still bound, per cent of control (MKNK2 (human)): 13%; kinase still bound, per cent of control (PDGFRB (human)): 10%; kinase still bound, per cent of control (MAP4K2 (human)): 29%; kinase still bound, per cent of control [4]: 32%
CSC1=NC(=O)/C(=C/c2c[nH]c(=O)c(-c3ccc(NS(C)(=O)=O)cc3)c2)S1 | 18 | – | – | 3.7 | 14 | 29 | 14 | – | – | 29 | 13 | – | – | 14 | 8.4 | – | – | – | 0.15 | 13 | kinase still bound, per cent of control (NEK2 (human)): 27%; kinase still bound, per cent of control (RIOK3 (human)): 7.4%; kinase still bound, per cent of control (STK11 (human)): 15%; kinase still bound, per cent of control (STK16 (human)): 21%; kinase still bound, per cent of control (MAP4K2 (human)): 7.7%
N=C1NC(=O)/C(=C/c2ccc(-c3ccccc3O)o2)S1 | 3.4 | 5.9 | 2.9 | 7.6 | 3.2 | 3.4 | 3.6 | 29 | 29 | 11 | 1.4 | – | 5.2 | 12 | 5.2 | – | 0.15 | – | 2.2 | 12 | kinase still bound, per cent of control (PRKD3 (human)): 28%; kinase still bound, per cent of control (RIOK3 (human)): 20%; kinase still bound, per cent of control (PRKD1 (human)): 26%
N=C1NC(=O)/C(=C/c2ccc(-c3ccc(F)cc3O)o2)S1 | 1.3 | 8.1 | 1 | 8.3 | 4.6 | 3.2 | 5 | 16 | 23 | – | 3.8 | – | 2.1 | 11 | 4.2 | 33 | 0.1 | 15 | 1.8 | 14 | kinase still bound, per cent of control (CSNK1D (human)): 24%; kinase still bound, per cent of control (PRKD1 (human)): 32%
CS(=O)(=O)Nc1ccc(-c2cc(/C=C3\SC(=N)NC3=O)c[nH]c2=O)cc1 | 1.6 | – | – | 6.4 | 24 | 10 | 0.85 | – | – | – | 9.5 | 20 | 6 | 2.4 | – | 23 | – | – | 0.35 | – | kinase still bound, per cent of control (DMPK (human)): 6.4%; kinase still bound, per cent of control (PRKD3 (human)): 33%; kinase still bound, per cent of control (NEK2 (human)): 19%; kinase still bound, per cent of control (RIOK3 (human)): 6%; kinase still bound, per cent of control (FLT3 (human)): 8.6%; kinase still bound, per cent of control (PRKD1 (human)): 15%; kinase still bound, per cent of control [5]: 13%; kinase still bound, per cent of control (STK11 (human)): 7%; kinase still bound, per cent of control (MAP4K2 (human)): 12%; kinase still bound, per cent of control [4]: 32%
